Measured values as given in patent publication US20180312493A1, “Antibiotic Compounds, Pharmaceutical Formulations Thereof And Methods And Uses Therefor” (Simon Fraser University, priority 2015, published 2018).
pIC50: −log10 of the molar value. Converted amounts (≈) assume the structure as drawn. Counter-ions that a name gives are not always drawn. Like-named read-outs stand apart in the source and are kept apart here.

Key:
MRSA MW2 (USA400) = assay: In vitro susceptibility, broth microdilution (MIC); assay type: cell-based, methicillin resistant S. aureus; details: Staphylococcus aureus, read-out: Antimicrobial activity (MIC) MSRA USA400
How it was run: (§1)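 MIC determined by CLSI 2-fold broth microdilution in cation-adjusted Mueller–Hinton broth at ~2.5×10^5 CFU/ml, final compound 0.031–64 μg/ml, 18–24 h at 37 °C. MIC is the lowest concentration giving complete growth inhibition by background-corrected OD600 versus compound-free wells; duplicate or triplicate wells, replicated at least twice.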

[1] = tested on: A. baumannii (ATCC 17978); assay: In vitro susceptibility, broth microdilution (MIC); assay type: cell-based; details: Acinetobacter baumannii
How it was run: as §1

VRE#2 (2010A) = assay: In vitro susceptibility, broth microdilution (MIC); assay type: cell-based, vancomycin resistant Enterococci; details: read-out: Antimicrobial activity (MIC) VRE#2
How it was run: as §1

S. aureus (ATCC29213) = assay: In vitro susceptibility, broth microdilution (MIC); assay type: cell-based; details: Staphylococcus aureus
How it was run: (§2)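 CLSI 2-fold serial broth microdilution; K. pneumoniae C238 grown in L-broth, S. aureus ATCC 29213 in Mueller Hinton broth, plates incubated 18–24 h at 37 °C. MIC taken as lowest concentration giving complete growth inhibition by OD600 versus compound-free wells, background-subtracted.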

K. pneumoniae (C238) = assay: In vitro susceptibility, broth microdilution (MIC); assay type: cell-based; details: Klebsiella pneumoniae, read-out: Antimicrobial activity (MIC) K. pneumoniae
How it was run: as §2

MRSA Pyk = target: T1, MRSA Pyk (Staphylococcus aureus, UniProt Q6GG09); assay: MRSA pyruvate kinase (PK) activity, continuous LDH-coupled assay; assay type: biochemical, methicillin resistant S. aureus (MRSA252)
T1 construct: made in house; host or cells: E. coli BL-21 (DE3)
T1 sequence (Q6GG09 whole entry): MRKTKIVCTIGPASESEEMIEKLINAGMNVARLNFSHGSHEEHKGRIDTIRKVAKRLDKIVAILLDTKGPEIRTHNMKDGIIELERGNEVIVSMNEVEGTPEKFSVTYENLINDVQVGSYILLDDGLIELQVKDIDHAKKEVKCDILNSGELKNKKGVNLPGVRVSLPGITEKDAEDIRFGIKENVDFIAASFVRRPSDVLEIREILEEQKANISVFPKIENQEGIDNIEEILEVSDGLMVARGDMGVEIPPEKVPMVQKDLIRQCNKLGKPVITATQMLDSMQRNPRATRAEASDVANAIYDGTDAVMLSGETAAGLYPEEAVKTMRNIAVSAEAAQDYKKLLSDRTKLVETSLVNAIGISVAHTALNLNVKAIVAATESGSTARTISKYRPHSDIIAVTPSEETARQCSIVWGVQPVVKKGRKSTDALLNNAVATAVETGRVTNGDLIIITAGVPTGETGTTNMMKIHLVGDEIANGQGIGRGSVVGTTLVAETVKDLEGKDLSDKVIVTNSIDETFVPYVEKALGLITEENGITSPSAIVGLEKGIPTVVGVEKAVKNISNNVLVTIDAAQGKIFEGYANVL
How it was run: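 Activity monitored continuously as absorbance change at 340 nm from NADH oxidation via coupled lactate dehydrogenase, reactions started with 15 nM recombinant His-tagged PK (MRSA or human isoform) and run at 30° C for up to 5 min. Ki derived by varying inhibitor (0-400 nM) and PEP (2-20 mM) at 2 mM ADP; IC50 by four-parameter fitting.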

[2] = tested on: A. baumannii (ATCC 19606); assay: In vitro susceptibility, broth microdilution (MIC); assay type: cell-based; details: Acinetobacter baumannii, ATCC19606; A. baumannii ATCC 19606 (values without asterisk); read-out: Antimicrobial activity (MIC) A. baumannii
How it was run: as §1

S. aureus ATCC 29123 = assay: Thigh infection model in neutropenic mice; assay type: in vivo, female CD-1 mice; details: thigh muscle, 10 mg/kg IV BID (2 and 8 h post-infection), 24 hr post infection
Experimental: The antimicrobial activity of compounds 23 and 60 against S. aureus ATCC 29123 was tested in vivo using a thigh infection model in neutropenic mice. Briefly, animals (female CD-1 mice, 5 weeks of age) were made neutropenic prior to S. aureus thigh infection by pre-treating with cyclophosphamide (150 mg/kg, IP, −4 and −1 days pre-inoculation). On the inoculation day (day 0), mice were infected with S. aureus at time zero (t=0). Animals were individually monitored for adverse reactions for 30 min post-infection.
Compounds 23 and 60 were prepared for IV administration and for oral administration. Vancomycin was administered as a solution in PBS. The test compounds were administered at 2 and 8 hours post-infection and animals were individually monitored for adverse reactions for 30 min after each injection. All animals were then monitored hourly from 20 hours post infection to the endpoint (t=24 hr post infection). At the indicated timepoint, animals were sacrificed and the injected thigh collected.
Quantitative enumeration of bacterial load was determined by plating serial dilutions from homogenized thigh muscles. The plates were incubated and colony counts were determined. CFU per mL calculated was calculated.

[3] = tested on: S. typhimurium (ATCC BAA-185); assay: In vitro susceptibility, broth microdilution (MIC); assay type: cell-based; details: Salmonella enterica, read-out: Antimicrobial activity (MIC) S. typhimurium
How it was run: as §1

MRSA (ATCC BAA-1762) = assay: In vitro susceptibility, broth microdilution (MIC); assay type: cell-based, methicillin resistant S. aureus; details: Staphylococcus aureus; MRSA ATCC BAA-1762; read-out: Antimicrobial activity (MIC) MRSA ATCC BAA1762
How it was run: as §1

[4] = Mammalian cytotoxicity, CellTiter 96 AQueous One (MTS); assay type: cell-based; details: human, HeLa 229 cells, positive control
Experimental: The cytotoxic activities of compounds were determined for HeLa cells 229 (ATCC:CCL-2-.1) in microtiter cultures by measuring dehydrogenase activity using CellTiter 96® AQueous One Solution Cell Proliferation Assay™ (Promega™, Madison, Wis., USA), according to the manufacturer's protocol. Freshly split cells were seeded into microtiter wells (2×10^4/well) and grown for 24 hours. The original media was then removed and replaced with media containing the desired concentration of compound or solvent control (i.e., DMSO). Plates were incubated for 24 h at 37° C. in a humidified incubator with a 5% CO2 atmosphere. At the end of the growth period, cells were lysed by the addition of 20 μl of Cell Titer 96 Aqueous One™ solution, and the incubation was continued for another 3 h at 37° C. Production of formazan was determined at 490 nm on Benchmark Plus™ microplate spectrophotometer (Bio-Rad™). To control for intrinsic absorbance, control series containing inhibitor dilutions but no cells were run for every experiment and the resulting absorbance values were subtracted as background from the experimental readings. Growth in compound-free control wells was considered as 100% and percentage of growth inhibition was calculated for each compound concentration. Cytotoxicity was quantified as the CC50, the concentration of compound that inhibited 50% of conversion of MTS to formazan. […]

[5] = ATCC17978, A. baumannii ATCC 17978 (values marked *), read-out: Antimicrobial activity (MIC) A. baumannii
[6] = S. aureus ATCC29213, 18-24 h, 37 C, read-out: Antimicrobial activity (MIC) S. aureus ATCC29213

| SMILES | MIC (MRSA MW2 (USA400); MRSA MW2 (USA400)) [µg/mL] | MIC (VRE#2 (2010A); VRE#2 (2010A)) [µg/mL] | MIC (S. aureus (ATCC29213); [6]) [µg/mL] | pIC50 (MRSA Pyk) | MIC (K. pneumoniae (C238); K. pneumoniae (C238)) [µg/mL] | also measured |
| --- | --- | --- | --- | --- | --- | --- |
| CN(C)CCC(=O)c1c(/C=C/c2ccc(Cl)cc2)[nH]c2cc(Br)ccc12.Cl [Compound 6, (E)-1-(6-Bromo-2-(4-chlorostyryl)-1H-indol-3-yl)-3-(dimethylamino)propan-1-one Hydrochloride] | 8 | 8 | 8 | 6.00 to 7.00 |  | MIC [1, 5]: 64 µg/mL; MIC (K. pneumoniae (C238)): 8 µg/mL |
| CN1CCN(CCC(=O)c2c(/C=C/c3ccc(Cl)cc3)[nH]c3cc(Br)ccc23)CC1 [Compound 7, (E)-1-(6-Bromo-2-(4-chlorostyryl)-1H-indol-3-yl)-3-(4-methylpiperazin-1-yl)propan-1-one Hydrochloride] |  |  |  | 6.00 to 7.00 |  | MIC (MRSA MW2 (USA400)): 8 µg/mL; MIC ([1]; ATCC17978, read-out: Antimicrobial activity (MIC) A. baumannii): > 64 µg/mL; MIC (VRE#2 (2010A)): 8 µg/mL; MIC (S. aureus (ATCC29213); ATCC29213, read-out: Antimicrobial activity (MIC) S. aureus ATCC29213): 8 µg/mL; MIC (K. pneumoniae (C238)): 8 µg/mL |
| Oc1cc(/C=C/c2cc3ccc(Br)cc3[nH]2)ccc1Cl [Compound 11, (E)-5-(2-(6-bromo-1H-indol-2-yl)vinyl)-2-chlorophenol] | 2 (≈ 5.74 µM) |  | 2 (≈ 5.74 µM) |  | 4 (≈ 11.5 µM) | MIC [1, 5]: > 64 µg/mL |
| CN(C)CCOc1cc(/C=C/c2cc3ccc(Br)cc3[nH]2)ccc1Cl [Compound 12, (E)-2-(5-(2-(6-bromo-1H-indol-2-yl)vinyl)-2-chlorophenoxy)-N,N-dimethylethanamine] | 4 (≈ 9.53 µM) |  | 4 (≈ 9.53 µM) | 6.00 to 7.00 | 4 (≈ 9.53 µM) | MIC [2]: 16 µg/mL (≈ 38.1 µM) |
| CN(C)CCNC(=O)c1c(/C=C/c2ccc(Cl)cc2)[nH]c2cc(Br)ccc12 [Compound 23, (E)-6-Bromo-2-(4-chlorostyryl)-N-(2-(dimethylamino)ethyl)-1H-indole-3-carboxamide] |  |  | 8 (≈ 17.9 µM) | > 7.00 |  | reduction in CFU (S. aureus ATCC 29123): 3 log |
| CN1CCN(CCOC(=O)c2c(/C=C/c3ccc(Cl)cc3)[nH]c3cc(Br)ccc23)CC1 [Compound 61, 2-(4-Methylpiperazin-1-yl)ethyl (E)-6-bromo-2-(4-chlorostyryl)-1H-indole-3-carboxylate] | 4 (≈ 7.95 µM) | 4 (≈ 7.95 µM) | 4 (≈ 7.95 µM) | 6.00 to 7.00 | 4 (≈ 7.95 µM) | MIC [1, 5]: > 64 µg/mL |
| O=C(O)CCCC(=O)c1c(-c2cc3cc(Cl)ccc3[nH]2)[nH]c2cc(Br)ccc12 [Compound 102, 5-(6-bromo-5′-chloro-1H,1′H-[2,2′-biindol]-3-yl)-5-oxopentanoic Acid] | 8 (≈ 17.4 µM) | 16 (≈ 34.8 µM) | 8 (≈ 17.4 µM) | > 7.00 | 16 (≈ 34.8 µM) | MIC [3]: 8 µg/mL (≈ 17.4 µM) |
| CN1CCN(CCNC(=O)CCCC(=O)c2c(-c3cc4cc(Cl)ccc4[nH]3)[nH]c3cc(Br)ccc23)CC1 [Compound 106, 5-(6-bromo-5′-chloro-1H,1′H-[2,2′-biindol]-3-yl)-N-(2-(4-methylpiperazin-1-yl)ethyl)-5-oxopentanamide] | 8 (≈ 13.7 µM) | 8 (≈ 13.7 µM) | 8 (≈ 13.7 µM) | > 7.00 | 8 (≈ 13.7 µM) | MIC [2]: > 64 µg/mL |
| CN(C)CCNC(=O)CCCC(=O)c1c(-c2cc3cc(Cl)ccc3[nH]2)[nH]c2cc(Br)ccc12 [Compound 107, 5-(6-bromo-5′-chloro-1H,1′H-[2,2′-biindol]-3-yl)-N-(2-(dimethylamino)ethyl)-5-oxopentanamide] | 4 (≈ 7.55 µM) | 4 (≈ 7.55 µM) | 4 (≈ 7.55 µM) | > 7.00 | 4 (≈ 7.55 µM) |  |
| O=C(O)CCCC(=O)c1c(-c2cc3cc(Cl)ccc3[nH]2)[nH]c2cc(-c3cc4cc(Cl)ccc4[nH]3)ccc12 [Compound 108, 5-(5,5″-dichloro-1H,1′H,1″H-[2,2′:6′,2″-terindol]-3′-yl)-5-oxopentanoic Acid] | 2 (≈ 3.77 µM) | 2 (≈ 3.77 µM) | 1 (≈ 1.89 µM) | < 6.00 | 2 (≈ 3.77 µM) |  |
| CC(C)c1nc2c(cc1-c1ccc(Cl)cc1)[nH]c1cc(Br)ccc12 [Compound 114, 7-bromo-3-(4-chlorophenyl)-2-isopropyl-5H-pyrido[3,2-b]indole] | 8 (≈ 20 µM) | 4 (≈ 10 µM) | 32 (≈ 80.1 µM) | 6.00 to 7.00 | 8 (≈ 20 µM) |  |
| CN(C)CCOc1cc2[nH]c(-c3cc4ccc(Br)cc4[nH]3)cc2cc1Cl [Compound 199, 2-((6′-Bromo-5-chloro-1H,1′H-[2,2′-biindol]-6-yl)oxy)-N,N-dimethylethan-1-amine] |  | 4 (≈ 9.24 µM) | 4 (≈ 9.24 µM) | > 7.00 |  | MIC (MRSA (ATCC BAA-1762)): 4 µg/mL (≈ 9.24 µM); MIC [2]: 8 µg/mL (≈ 18.5 µM); MIC [3]: 32 µg/mL (≈ 73.9 µM) |
| O=C(O)CCNC(=O)c1c(-c2cc3cc(Cl)ccc3[nH]2)[nH]c2cc(Br)ccc12 [Compound 205, 3-(6-Bromo-5′-chloro-1H,1′H-[2,2′-biindole]-3-carboxamido)propanoic Acid] | 32 (≈ 69.5 µM) |  | 32 (≈ 69.5 µM) | > 7.00 |  | MIC (MRSA (ATCC BAA-1762)): 64 µg/mL (≈ 139 µM); MIC [1, 5]: > 64 µg/mL |
| Clc1cc2nc(-c3cc4ccc(Br)cc4[nH]3)[nH]c2cc1Cl [Compound 207, 2-(6-Bromo-1H-indol-2-yl)-5,6-dichloro-1H-benzo[d]imidazole] | 1 (≈ 2.62 µM) | 32 (≈ 84 µM) | 0.5 (≈ 1.31 µM) | > 7.00 | 16 (≈ 42 µM) | MIC [2]: > 64 µg/mL |
| COc1cc(O)c(CC=C(C)C)c(O)c1C(=O)/C=C/c1ccc(O)cc1 [xanthohumol] |  |  |  |  |  | CC50 at 24 h [4]: ~9 µg/mL (≈ 25.4 µM) |
